Columns and labels:
Experiment in all cases: cells
PANC-08-13 = format: functional, cell-based, Homo sapiens; conditions: Homo sapiens, PANC-08-13;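 also: cell growth inhibition, measured with a cell viability assay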
Description: SANGER: Inhibition of human PANC-08-13 cell growth in a cell viability assay.

MC-IXC = format: functional, cell-based, Homo sapiens; conditions: Homo sapiens, MC-IXC;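 also: growth inhibition of MC-IXC cells, read out with a cell viability assay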
Description: SANGER: Inhibition of human MC-IXC cell growth in a cell viability assay.

NCI-H2029 = format: functional, cell-based; conditions: Homo sapiens;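 also: Read-out is a viability assay on the cultured cells, and IC50 is the concentration that suppresses cell growth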
Description: SANGER: Inhibition of human NCI-H2029 cell growth in a cell viability assay.

LNCaP-Clone-FGC = format: functional, cell-based, Homo sapiens; conditions: Homo sapiens, LNCaP-Clone-FGC
Description: SANGER: Inhibition of human LNCaP-Clone-FGC cell growth in a cell viability assay.

RPMI-8226 = format: functional, cell-based; conditions: Homo sapiens
Description: SANGER: Inhibition of human RPMI-8226 cell growth in a cell viability assay.

D-423MG = format: functional, cell-based; conditions: Homo sapiens
Description: SANGER: Inhibition of human D-423MG cell growth in a cell viability assay.

BE-13 = format: functional, cell-based; conditions: Homo sapiens;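 also: growth inhibition of human BE-13 cells, measured with a cell viability assay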
Description: SANGER: Inhibition of human BE-13 cell growth in a cell viability assay.

GCIY = format: functional, cell-based, Homo sapiens; conditions: Homo sapiens, GCIY;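 also: growth inhibition of the human GCIY cell line, read out by a cell viability assay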
Description: SANGER: Inhibition of human GCIY cell growth in a cell viability assay.

SK-N-AS = format: functional, cell-based, Homo sapiens; conditions: Homo sapiens, SK-N-AS;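 also: growth inhibition of human SK-N-AS cells, measured with a cell viability assay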
Description: SANGER: Inhibition of human SK-N-AS cell growth in a cell viability assay.

HCT-116 = format: functional, cell-based, Homo sapiens; conditions: Homo sapiens, HCT-116
Description: SANGER: Inhibition of human HCT-116 cell growth in a cell viability assay.

KU-19-19 = format: functional, cell-based, Homo sapiens; conditions: Homo sapiens, KU-19-19
Description: SANGER: Inhibition of human KU-19-19 cell growth in a cell viability assay.

CFPAC-1 = format: functional, cell-based; conditions: Homo sapiens;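 also: cell viability readout used to gauge suppression of CFPAC-1 cell proliferation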
Description: SANGER: Inhibition of human CFPAC-1 cell growth in a cell viability assay.

SW756 = format: functional, cell-based, Homo sapiens; conditions: Homo sapiens, SW756;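 also: growth inhibition of human SW756 cells, read out with a cell viability assay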
Description: SANGER: Inhibition of human SW756 cell growth in a cell viability assay.

SNU-423 = format: functional, cell-based, Homo sapiens; conditions: Homo sapiens, SNU-423
Description: SANGER: Inhibition of human SNU-423 cell growth in a cell viability assay.

H9 = format: functional, cell-based; conditions: Homo sapiens
Description: SANGER: Inhibition of human H9 cell growth in a cell viability assay.

HCT-15 = format: functional, cell-based, Homo sapiens; conditions: Homo sapiens, HCT-15;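 also: cell viability readout, IC50 reflecting suppression of HCT-15 cell growth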
Description: SANGER: Inhibition of human HCT-15 cell growth in a cell viability assay.

LB831-BLC = format: functional, cell-based, Homo sapiens; conditions: Homo sapiens, LB831-BLC;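 also: growth inhibition of LB831-BLC cells, read out with a cell viability assay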
Description: SANGER: Inhibition of human LB831-BLC cell growth in a cell viability assay.

NCI-H2228 = format: functional, cell-based, Homo sapiens; conditions: Homo sapiens, NCI-H2228;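 also: growth inhibition of human NCI-H2228 cells, read out by a cell viability assay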
Description: SANGER: Inhibition of human NCI-H2228 cell growth in a cell viability assay.

NY = format: functional, cell-based, Homo sapiens; conditions: Homo sapiens, NY
Description: SANGER: Inhibition of human NY cell growth in a cell viability assay.

L-428 = format: functional, cell-based; conditions: Homo sapiens
Description: SANGER: Inhibition of human L-428 cell growth in a cell viability assay.

ECC10 = format: functional, cell-based; conditions: Homo sapiens;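 also: growth inhibition of ECC10 cells, read out by a cell viability assay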
Description: SANGER: Inhibition of human ECC10 cell growth in a cell viability assay.

LU-99A = format: functional, cell-based, Homo sapiens; conditions: Homo sapiens, LU-99A;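 also: growth inhibition of LU-99A cells, read out with a cell viability assay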
Description: SANGER: Inhibition of human LU-99A cell growth in a cell viability assay.

MOLT-13 = format: functional, cell-based; conditions: Homo sapiens;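 also: IC50 for suppression of MOLT-13 cell growth, read out with a cell viability assay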
Description: SANGER: Inhibition of human MOLT-13 cell growth in a cell viability assay.

TGBC11TKB = format: functional, cell-based; conditions: Homo sapiens;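 also: growth inhibition of human TGBC11TKB cells, measured by a cell viability assay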
Description: SANGER: Inhibition of human TGBC11TKB cell growth in a cell viability assay.

NCI-H1666 = format: functional, cell-based; conditions: Homo sapiens;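 also: growth inhibition of the cell line, read out with a cell viability assay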
Description: SANGER: Inhibition of human NCI-H1666 cell growth in a cell viability assay.

SJRH30 = format: functional, cell-based; conditions: Homo sapiens;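 also: growth inhibition of human SJRH30 cells, read out with a cell viability assay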
Description: SANGER: Inhibition of human SJRH30 cell growth in a cell viability assay.

MS-1 = format: functional, cell-based; conditions: Homo sapiens;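 also: growth inhibition of MS-1 cells, read out by cell viability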
Description: SANGER: Inhibition of human MS-1 cell growth in a cell viability assay.

SBC-1 = format: functional, cell-based; conditions: Homo sapiens;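 also: cell viability assay measuring growth inhibition of the SBC-1 cell line, IC50 being the concentration that halves growth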
Description: SANGER: Inhibition of human SBC-1 cell growth in a cell viability assay.

RD = format: functional, cell-based, Homo sapiens; conditions: Homo sapiens, RD
Description: SANGER: Inhibition of human RD cell growth in a cell viability assay.

NCI-H1048 = format: functional, cell-based; conditions: Homo sapiens;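 also: growth inhibition of human NCI-H1048 cells, read out with a cell viability assay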
Description: SANGER: Inhibition of human NCI-H1048 cell growth in a cell viability assay.

LS-123 = format: functional, cell-based, Homo sapiens; conditions: Homo sapiens, LS-123
MZ1-PC = format: functional, cell-based, Homo sapiens; conditions: Homo sapiens, MZ1-PC;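 also: cell viability assay measuring growth inhibition of human MZ1-PC cells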
Description: SANGER: Inhibition of human MZ1-PC cell growth in a cell viability assay.

HCC70 = format: functional, cell-based, Homo sapiens; conditions: Homo sapiens, HCC70;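 also: cell viability assay measuring how strongly the compound suppresses proliferation of HCC70 cells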
Description: SANGER: Inhibition of human HCC70 cell growth in a cell viability assay.

SW900 = format: functional, cell-based; conditions: Homo sapiens;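 also: IC50 is the concentration that inhibits SW900 cell growth, measured by a cell viability assay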
Description: SANGER: Inhibition of human SW900 cell growth in a cell viability assay.

`Nc1ccn([C@@H]2O[C@H](CO)[C@@H](O)[C@@H]2O)c(=O)n1` [CYTARABINE] was tested, and the IC50 (PANC-08-13) was > 2000 nM, the IC50 (MC-IXC) was 41.4 nM and the IC50 (NCI-H2029) was > 2000 nM. The IC50 (LNCaP-Clone-FGC) was 1310 nM, the IC50 (RPMI-8226) was > 2000 nM and the IC50 (D-423MG) was 299 nM. For the same molecule, the IC50 (BE-13) was 825 nM, the IC50 (GCIY) was > 2000 nM and the IC50 (SK-N-AS) was 450 nM. The IC50 (HCT-116) was 245 nM, the IC50 (KU-19-19) was > 2000 nM and the IC50 (CFPAC-1) was 1060 nM. It also gave an IC50 (SW756) of 719 nM, an IC50 (SNU-423) of 881 nM and an IC50 (H9) of 391 nM. For the same molecule, the IC50 (HCT-15) was > 2000 nM, the IC50 (LB831-BLC) was > 2000 nM and the IC50 (NCI-H2228) was 597 nM. The IC50 (NY) was > 2000 nM, the IC50 (L-428) was > 2000 nM and the IC50 (ECC10) was > 2000 nM. For the same molecule, the IC50 (LU-99A) was 266 nM, the IC50 (MOLT-13) was > 2000 nM and the IC50 (TGBC11TKB) was 1730 nM. The IC50 (NCI-H1666) was 1580 nM, the IC50 (SJRH30) was 683 nM and the IC50 (MS-1) was > 2000 nM. For the same molecule, the IC50 (SBC-1) was > 2000 nM, the IC50 (RD) was 1270 nM and the IC50 (NCI-H1048) was 389 nM. For the same molecule, the IC50 (LS-123) was > 2000 nM, the IC50 (MZ1-PC) was 1800 nM and the IC50 (HCC70) was > 2000 nM. For the same molecule, the IC50 (SW900) was 1620 nM.

For `CCOc1nc(NC(=O)Cc2cc(OC)ccc2OC)cc(N)c1C#N`, the IC50 (PANC-08-13) was > 10000 nM, the IC50 (MC-IXC) was > 10000 nM and the IC50 (NCI-H2029) was > 10000 nM. For the same molecule, the IC50 (LNCaP-Clone-FGC) was > 10000 nM, the IC50 (RPMI-8226) was > 10000 nM and the IC50 (D-423MG) was > 10000 nM. The IC50 (BE-13) was > 10000 nM, the IC50 (GCIY) was > 10000 nM and the IC50 (SK-N-AS) was > 10000 nM. The IC50 (HCT-116) was > 10000 nM, the IC50 (KU-19-19) was > 10000 nM and the IC50 (CFPAC-1) was > 10000 nM. For the same molecule, the IC50 (SW756) was > 10000 nM, the IC50 (SNU-423) was > 10000 nM and the IC50 (H9) was > 10000 nM. The IC50 (HCT-15) was > 10000 nM, the IC50 (LB831-BLC) was > 10000 nM and the IC50 (NCI-H2228) was > 10000 nM. For the same molecule, the IC50 (NY) was > 10000 nM, the IC50 (L-428) was > 10000 nM and the IC50 (ECC10) was > 10000 nM. The IC50 (LU-99A) was > 10000 nM, the IC50 (MOLT-13) was > 10000 nM and the IC50 (TGBC11TKB) was > 10000 nM. For the same molecule, the IC50 (NCI-H1666) was > 10000 nM, the IC50 (SJRH30) was > 10000 nM and the IC50 (MS-1) was > 10000 nM. The IC50 (SBC-1) was > 10000 nM, the IC50 (RD) was > 10000 nM and the IC50 (NCI-H1048) was > 10000 nM. The IC50 (LS-123) was > 10000 nM, the IC50 (MZ1-PC) was > 10000 nM and the IC50 (HCC70) was > 10000 nM. For the same molecule, the IC50 (SW900) was > 10000 nM.

`C=CCNC1=C2C[C@@H](C)C[C@H](OC)[C@H](O)[C@@H](C)/C=C(\C)[C@H](OC(N)=O)[C@@H](OC)/C=C\C=C(/C)C(=O)NC(=CC1=O)C2=O` [TANESPIMYCIN] was tested, and the IC50 (PANC-08-13) was 532 nM, the IC50 (MC-IXC) was > 1000 nM and the IC50 (NCI-H2029) was > 1000 nM. For the same molecule, the IC50 (LNCaP-Clone-FGC) was 800 nM, the IC50 (RPMI-8226) was 663 nM and the IC50 (D-423MG) was > 1000 nM. The IC50 (BE-13) was > 1000 nM, the IC50 (GCIY) was 918 nM and the IC50 (SK-N-AS) was > 1000 nM. The IC50 (HCT-116) was 266 nM, the IC50 (KU-19-19) was > 1000 nM and the IC50 (CFPAC-1) was 375 nM. For the same molecule, the IC50 (SW756) was 442 nM, the IC50 (SNU-423) was > 1000 nM and the IC50 (H9) was 43.7 nM. For the same molecule, the IC50 (HCT-15) was > 1000 nM, the IC50 (LB831-BLC) was 139 nM and the IC50 (NCI-H2228) was 354 nM. For the same molecule, the IC50 (NY) was > 1000 nM, the IC50 (L-428) was > 1000 nM and the IC50 (ECC10) was > 1000 nM. For the same molecule, the IC50 (LU-99A) was 62.4 nM, the IC50 (MOLT-13) was > 1000 nM and the IC50 (TGBC11TKB) was 109 nM. The IC50 (NCI-H1666) was 128 nM, the IC50 (SJRH30) was > 1000 nM and the IC50 (MS-1) was > 1000 nM. For the same molecule, the IC50 (SBC-1) was 267 nM, the IC50 (RD) was 191 nM and the IC50 (NCI-H1048) was 290 nM. The IC50 (LS-123) was > 1000 nM, the IC50 (MZ1-PC) was > 1000 nM and the IC50 (HCC70) was 921 nM. The IC50 (SW900) was > 1000 nM.

For `CN(C)C/C=C/C(=O)Nc1cc2c(Nc3ccc(F)c(Cl)c3)ncnc2cc1O[C@H]1CCOC1` [AFATINIB], the IC50 (PANC-08-13) was > 500 nM, the IC50 (MC-IXC) was > 500 nM and the IC50 (NCI-H2029) was > 500 nM. The IC50 (LNCaP-Clone-FGC) was > 500 nM, the IC50 (RPMI-8226) was > 500 nM and the IC50 (D-423MG) was > 500 nM. The IC50 (BE-13) was > 500 nM, the IC50 (GCIY) was > 500 nM and the IC50 (SK-N-AS) was > 500 nM. The IC50 (HCT-116) was > 500 nM, the IC50 (KU-19-19) was > 500 nM and the IC50 (CFPAC-1) was > 500 nM. For the same molecule, the IC50 (SW756) was > 500 nM, the IC50 (SNU-423) was > 500 nM and the IC50 (H9) was 71.3 nM. For the same molecule, the IC50 (HCT-15) was > 500 nM, the IC50 (LB831-BLC) was > 500 nM and the IC50 (NCI-H2228) was > 500 nM. The IC50 (NY) was > 500 nM, the IC50 (L-428) was > 500 nM and the IC50 (ECC10) was > 500 nM. The IC50 (LU-99A) was > 500 nM, the IC50 (MOLT-13) was 240 nM and the IC50 (TGBC11TKB) was > 500 nM. For the same molecule, the IC50 (NCI-H1666) was > 500 nM, the IC50 (SJRH30) was > 500 nM and the IC50 (MS-1) was > 500 nM. For the same molecule, the IC50 (SBC-1) was 190 nM, the IC50 (RD) was > 500 nM and the IC50 (NCI-H1048) was > 500 nM. The IC50 (LS-123) was > 500 nM, the IC50 (MZ1-PC) was > 500 nM and the IC50 (HCC70) was > 500 nM. The IC50 (SW900) was > 500 nM.

From ChEMBL document CHEMBL1201861, “Genomics of Drug Sensitity in Cancer screening data, Wellcome Trust Sanger Institute”
